Laboratory results from patent publication US20070004689A1, “Antiangiogenic agents” (priority 2004, published 2007).
Like-named read-outs stand apart in the source and are kept apart here.

Key:
[1] = test system: U87-MG a human glioma; experiment: Proliferation assay, U87-MG; type: cell-based; conditions: proliferation, read-out: U87-MG (IC50 μM)
Source text: (§1) Cell Culture: Human umbilical vein endothelial cells (HUVEC) were obtained from Clonetics (San Diego, Calif.), MCF7 cells were the kind gift of Dr. Dorraya El Ashry (University of Michigan), MDA-MB-231 a human breast carcinoma, PC3 a human prostate carcinoma, and U87-MG a human glioma, cell lines were obtained from ATCC. HUVEC cultures were maintained for up to 5 passages in EGM containing bovine brain extract (Clonetics) and 1× antibiotic-antimycotic (BioWhittaker, Walkersville, Md.). MDA-MB-231, PC3, U87-MG and MCF-7 cells were maintained in DMEM/F12 (1:1) containing 10% (v/v) fetal bovine serum (Hyclone Laboratories, Logan, Utah) and 1× antibiotic-antimycotic. MCF7 cells were used between passage 60 and passage 100.
(§2) Proliferation Assays: Proliferation was measured by cell counting using a Coulter Zl cell counter (Coulter Corporation, Hialeah, Fla.) or by evaluation of DNA synthesis. Each condition was done in triplicate and experiments were repeated at least twice. To determine estrogenicity of the analogs, MCF7 estrogen-dependent proliferation assays were performed. The cells were seeded in complete media at 10,000 cells/well in a 24 well plate after allowing the cells to adhere overnight and the seeding density was determined by cell counts. Cells were washed with PBS (37° C.) and starved by placing them in IMEM-phenol red free media containing 2% charcoal-dextran fetal bovine-stripped serum (Valley Biomedical, Winchester, Va.) and 1× antibiotic-antimycotic. After 3 days of starvation, cells were treated with or without increasing concentrations of compounds, replacing the media every 2-3 days and counted after 7 days of treatment. In order to ensure that only the added test compounds stimulated growth, experiments were performed only with cell cultures that duplicated less than once during the starvation period. Values are expressed as MCF7 stimulation index (SI) relative to 2ME2 (defined as 1.00). A value less than 1.00 indicates reduced estrogenicity. Estradiol is used as a positive control.
(§3) To determine anti-tumor and anti-angiogenic activities of the analogs, proliferation assays were performed by evaluating detection of DNA synthesis by use of the 5-bromo-2′-deoxyuridine (BrdU) cell proliferation colorimetric ELISA kit from Roche (Indianapolis, Ind.) according to the manufacturer's instructions. For BrdU assays, the cells were seeded at 1,000 cells/well (MDA-MB-231, anti-tumor activity) or 3,000 cells/well (HUVEC, anti-angiogenic activity) in a 96 well plate, allowed to attach overnight and then exposed to the compound for 48 h. IC50 value is the concentration at which cell proliferation is inhibited by 50%.
(§4) Antiproliferative activity of the NCEs were assessed in tumor cell lines (MDA-MB-231 a breast carcinoma, PC3 a prostate carcinoma and U87-MG a glioma) and endothelial cells (HUVEC).

[2] = test system: PC3 a human prostate carcinoma; experiment: Proliferation assay, PC3; type: cell-based; conditions: proliferation, read-out: PC3 (IC50 μM)
Source text: as §1, §2, §3, §4

[3] = test system: MCF7 cells; experiment: MCF7 estrogen-dependent proliferation assay (estrogenicity); type: cell-based, human; conditions: stimulation index, 2ME2 defined as 1.00; less than 1.00 = reduced estrogenicity; 7 days of treatment
Source text: as §1
as §2, with “[…].” for “Values are expressed as MCF7 stimulation index (SI) relative to 2ME2 (defined as 1.00). A value less than 1.00 indicates reduced estrogenicity.”

[4] = test system: human hepatocyte suspensions; experiment: Hepatocyte incubations, human; type: in vitro ADME; conditions: human hepatocytes, NR = no reaction; for Hepatocyte Human 60/120′ (1 uM): 60′ / Hepatocyte Human 60/120′ (5 uM): 60′: 60 minutes; for Hepatocyte Human 60/120′ (1 uM): 120′ / Hepatocyte Human 60/120′ (5 uM): 120′: 120 minutes
Experimental: Hepatocyte Incubations: An in vitro measure of metabolism using cells from rat and human liver. Rat and human hepatocyte suspensions (10^6 cells per mL of serum-free (H)CL15 culture medium) were incubated with 2 concentrations (1 and 5 μM) of each of the compounds. Stock solutions were prepared in DMSO, and were further diluted in culture medium to the final test concentrations. 7-Ethoxycoumarin (7-EC) were included as a positive control substrate for P450. A 0.1 M 7-EC stock solution was prepared in DMSO, and the final assay concentration was 100 μM. The reactions were initiated by the addition of the substrates, incubated at 37° C., and terminated after 0, 60 and 120 minutes by addition of acetonitrile. The positive 7-EC control reactions were stopped with perchloric acid or ZnSO4 and BaOH after 60-minutes of incubation. The reaction mixture was centrifuged to remove the cell debris, and the supernatant was used for subsequent analysis by HPLC/LC-MS. If necessary, the supernatants were flash frozen in liquid N2 and stored at −70° C. until further analysis. HPLC was used to analyze product formation from 7-EC. Analyses to determine the concentration of the test compounds were carried out using reverse phase HPLC with tandem mass spectrometric detection (LC-MS/MS). Samples were analyzed to measure the disappearance of parent compound over time. The rate of metabolism was estimated by fitting a curve to the data for each concentration against time using GraphPad Prism Version 3.02 software.

[5] = test system: MDA-MB-231 a human breast carcinoma; experiment: BrdU proliferation assay, MDA-MB-231 (anti-tumor activity); type: cell-based; conditions: BrdU DNA synthesis, 48 h exposure, read-out: MDA-MB-231 (IC50 μM)
Source text: as §1, §2, §3, §4

Hepatocyte Human 60/120′ (1 uM): 60′ [4] | IC50 [1] [µM] | IC50 [2] [µM] | Hepatocyte Human 60/120′ (5 uM): 60′ [4] | IC50 [5] [µM] | SMILES | IC50 ([1]; Homo sapiens, U-87 MG) [µM] | IC50 ([2]; Homo sapiens) [µM] | MCF7 SI Relative to 2ME2 [3] | Hepatocyte Human 60/120′ (1 uM): 120′ [4] | Hepatocyte Human 60/120′ (5 uM): 120′ [4] | IC50 ([5]; Homo sapiens, MDA-MB-231) [µM]
111 | 10 ± 2.49 | 5.7 ± 0.58 | 117 | 2.37 ± 0.8 | COc1cc2c(cc1C(N)=O)CC[C@@H]1[C@@H]2CC[C@]2(C)CCC[C@@H]12 [Compound 57, (2-Methoxyestra-1,3,5(10)-trien-3-yl)-3-carboxamide] | – | – | 0.31 | 98 | 118 | –
52 | 0.23 ± 0.08 | 0.21 ± 0.1 | 92 | 0.19 ± 0.04 | COc1cc2c(cc1C(N)=O)CC[C@@H]1[C@@H]2CC[C@]2(C)C=CC[C@@H]12 [Compound 63, 3-carboxamide-2-methoxy-1,3,5(10)16-estratetraene] | – | – | 0.28 | 70 | 71 | –

SMILES | Hepatocyte Human 60/120′ (1 uM): 60′ [4] | IC50 [1] [µM] | IC50 [2] [µM] | Hepatocyte Human 60/120′ (5 uM): 60′ [4] | IC50 [5] [µM] | IC50 ([1]; Homo sapiens, U-87 MG) [µM] | IC50 ([2]; Homo sapiens) [µM] | MCF7 SI Relative to 2ME2 [3] | Hepatocyte Human 60/120′ (1 uM): 120′ [4] | Hepatocyte Human 60/120′ (5 uM): 120′ [4] | IC50 ([5]; Homo sapiens, MDA-MB-231) [µM]
COc1cc2c(cc1C(N)=O)CC[C@@H]1[C@@H]2CC[C@]2(C)C(=O)CC[C@@H]12 [Compound 54, 2-methoxy-17-oxoestra-1,3,5(10)-triene-3-carboxamide] | 99 | – | – | – | – | 2.23 ± 0.4 | 4.64 ± 0.9 | 0.26 | 102 | 103 | 2.2 ± 0.43
C=C1CC[C@H]2[C@@H]3CCc4cc(C(N)=O)c(OC)cc4[C@H]3CC[C@]12C [Compound 60, 2-Methoxy-17-methyleneestra-1,3,5(10)-triene-3-carboxamide] | – | – | – | 96 | – | 0.25 ± 0.02 | 0.25 ± 0.01 | 0.26 | 91 | 93 | 0.19 ± 0.08
